Results as given in the NIST ThermoML archive (doi:10.1016/j.fluid.2014.06.010).
± gives the expanded uncertainty stated by the source.

Conditions: Liquid; Closed cell (Static) method

Structure (SMILES) | Normal boiling temperature
CC(O)C(=O)O (configuration not stated) [2-hydroxypropanoic acid] | 125.1 ± 0.2 °C
CC(=O)CC(C)C [4-methylpentan-2-one] | 119.2 ± 0.2 °C
